In patent publication US20240269109A1 (STICHTING MEDISCHE KLINIEK VELSEN, priority 2021, published 2024):

Experiments:
[1] = off-label patient trial, oromucosal/sublingual formulation; format: in vivo, human
Protocol: The formulation of the invention was used “off-label” to treat a number of patients to determine its effect as set out in Example 2.
In the Netherlands, 22 patients were treated with the formulation of Example 1a as follows: […]
10 patients had COVID-19 symptoms (and were positive and were seen by their general practitioner). All 10 patients presented with early signs of respiratory distress; tachypnea (more than 30 breaths per minute), high fever and dry cough and a decreased Sp02<90.
6 patients had post-COVID respiratory complaints. They were experiencing long-term complaints, ranging from coughing, fatigue and shortness of breath to anxiety and physical limitations.
6 patients suffered with various autoimmune diseases as follows: • 1 patient had rheumatoid arthritis. • 1 patient had scleroderma; • 1 patient had dermatomyositis; • 1 patient had morbus Parkinson; • 2 patients had psoriasis.
All patients were given the formulation as described in Example 1a above, up to 6 times a day, for up to 2 weeks.

[2] = high doses for local anesthesia; cited from earlier work

CCN(CC)CC(=O)Nc1c(C)cccc1C [lidocaine]
response of COVID-19 patients with early signs of respiratory distress ([1]; 10 patients, sublingual): responded well
effective adult unit dose ([1]; delivered oromucosally or sublingually, 4-6 times a day): 60 to 100 mg
dose at which methemoglobinemia can occur [2]: 4-5 mg/kg bodyweight
